Results as given in US4570006A, “Amidine compound, process for producing same and anti-complement agent comprising same” (Torii & Co. Ltd., priority 1981, dated 1986).
pIC50: −log10 of the molar value.

Key:
complement = test: Inhibition of complement mediated hemolysis; assay type: cell-based
Protocol: The complement mediated hemolysis is widely used as a means to determine the titration of complement. The principle of this method is based on the fact that hemolysis if caused by the activation of complement, when the latter is added to a complex (immune complex) of erythrocytes and the antibody thereof. The degree of hemolysis varies in proportion to the amount of complement added. Therefore, when a known amount of complement admixed with a Cl esterase inhibitor is used, the hemolysis must be suppressed in proportion to the inhibitory activity.
The anti-Cl esterase (Clr, Cls) activity was determined according to the method of Okamura et al. [K. Okamura, M. Muramatsu and B. Fujii, Biochem. Biophys. […] The figures in Table 2 have the following meanings: […]

Cls = biological target: T1, Cls (Homo sapiens, UniProt P09871); test: Anti-Cl esterase activity, Cls (ATEE hydrolysis); assay type: biochemical; conditions: hydrolysis of ATEE; read-out: Anti-Cl activity, Cls (50% inhibition)
T1 sequence (P09871 438-688 limits assumed): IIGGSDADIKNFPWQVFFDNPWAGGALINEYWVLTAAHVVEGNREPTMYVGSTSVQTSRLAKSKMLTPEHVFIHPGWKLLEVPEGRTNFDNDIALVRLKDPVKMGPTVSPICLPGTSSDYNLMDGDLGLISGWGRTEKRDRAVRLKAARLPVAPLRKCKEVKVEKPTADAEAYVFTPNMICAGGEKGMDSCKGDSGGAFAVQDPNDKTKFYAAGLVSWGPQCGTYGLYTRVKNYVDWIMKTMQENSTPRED
T1 sequence (P09871 16-437 limits assumed): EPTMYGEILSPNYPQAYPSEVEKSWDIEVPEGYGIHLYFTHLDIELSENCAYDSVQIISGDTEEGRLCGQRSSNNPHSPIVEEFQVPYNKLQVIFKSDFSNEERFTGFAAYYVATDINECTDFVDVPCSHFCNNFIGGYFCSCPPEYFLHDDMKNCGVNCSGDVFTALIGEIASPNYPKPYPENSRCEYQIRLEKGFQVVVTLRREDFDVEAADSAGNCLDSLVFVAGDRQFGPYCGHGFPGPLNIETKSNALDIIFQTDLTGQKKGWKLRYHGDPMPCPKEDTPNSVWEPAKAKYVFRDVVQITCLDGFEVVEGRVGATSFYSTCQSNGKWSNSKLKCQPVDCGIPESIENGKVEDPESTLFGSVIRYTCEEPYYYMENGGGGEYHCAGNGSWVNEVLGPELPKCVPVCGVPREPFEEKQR
Protocol: The anti-Cl esterase (Clr, Cls) activity was determined according to the method of Okamura et al. [K. Okamura, M. Muramatsu and B. Fujii, Biochem. Biophys. […] The figures in Table 2 have the following meanings:
Cls: Molar concentration of the test compound which inhibits 50% of the ability of Cls to hydrolyse ATEE (acetyltyrosin ethyl ester).

Clr = biological target: T2, Clr (Homo sapiens, UniProt P00736); test: Anti-Cl esterase activity, Clr (AAME hydrolysis); assay type: biochemical; conditions: hydrolysis of AAME; read-out: Anti-Cl activity, Clr (ID50)
T2 sequence (P00736 464-705 limits assumed): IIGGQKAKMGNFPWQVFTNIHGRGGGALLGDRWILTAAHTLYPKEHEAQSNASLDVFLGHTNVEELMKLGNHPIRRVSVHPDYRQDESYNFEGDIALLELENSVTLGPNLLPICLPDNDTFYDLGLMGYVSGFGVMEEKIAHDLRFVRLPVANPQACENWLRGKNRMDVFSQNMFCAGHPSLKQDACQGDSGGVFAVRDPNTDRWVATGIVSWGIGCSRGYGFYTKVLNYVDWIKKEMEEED
T2 sequence (P00736 18-463 limits assumed): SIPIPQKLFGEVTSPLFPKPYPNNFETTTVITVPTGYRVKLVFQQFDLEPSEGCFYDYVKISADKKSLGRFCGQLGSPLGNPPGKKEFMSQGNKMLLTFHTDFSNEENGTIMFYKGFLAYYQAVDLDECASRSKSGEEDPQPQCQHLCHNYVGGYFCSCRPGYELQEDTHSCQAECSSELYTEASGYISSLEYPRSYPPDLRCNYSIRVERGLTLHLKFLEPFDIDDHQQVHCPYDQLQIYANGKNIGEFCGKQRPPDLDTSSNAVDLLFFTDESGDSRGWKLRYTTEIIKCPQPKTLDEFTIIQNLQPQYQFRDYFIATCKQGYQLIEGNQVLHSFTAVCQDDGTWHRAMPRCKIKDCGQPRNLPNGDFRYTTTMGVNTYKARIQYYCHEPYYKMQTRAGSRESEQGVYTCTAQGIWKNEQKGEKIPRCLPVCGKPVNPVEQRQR
Protocol: The anti-Cl esterase ([…]) activity was determined according to the method of Okamura et al. [K. Okamura, M. Muramatsu and B. Fujii, Biochem. Biophys.

Compound | Inhibition of complement mediated hemolysis (%) (complement; compound at 1 × 10^-4) | Inhibition of complement mediated hemolysis (%) (complement; compound at 1 × 10^-5) | Inhibition of complement mediated hemolysis (%) (complement; compound at 1 × 10^-6) | pIC50 (Cls) | pIC50 (Clr) | Inhibition of complement mediated hemolysis (%) (complement; compound at 1 × 10^-7)
N#Cc1ccc(C(=O)Oc2ccc(C(=N)N)cc2C(=O)c2ccccc2)cc1 [Compound 83] | 100 | 90.2 | 12.9 | 5.40 | 5.05 | –
CC(C(=O)Oc1ccc(C(=N)N)cc1C(=O)c1ccccc1)c1ccc(Cl)cc1 (centres unmarked) [Compound 86] | 100 | 97.1 | 53.6 | – | – | 11.0
CC(=O)N[C@@H](CC(C)C)C(=O)N[C@@H](CC(C)C)C(=O)N[C@H](C=O)CCCNC(=N)N [Leupeptin, reference compound] | 97 | 52 | 0 | – | – | 0
N=C(N)c1ccc(OC(=O)c2ccc(S(N)(=O)=O)cc2)c(C(=O)c2ccccc2)c1 [Compound 67] | 99.2 | 99.2 | 96.9 | – | – | 57.5
N=C(N)Nc1ccc(C(=O)Nc2cc(C(=N)N)ccc2OC(=O)c2ccc(NC(=N)N)cc2)cc1 [Compound 73, 4-amidino-2-(4-guanidinobenzoylamino)phenyl 4-guanidinobenzoate] | 100 | 100 | 89.9 | – | – | 46.1
COc1cc(C(=N)N)ccc1OC(=O)CCc1ccccc1 [Compound 32, 4-amidino-2-methoxyphenyl 3-phenylpropionate] | 63.9 | 97.5 | 7.1 | – | – | 0
CN(C(=N)N)c1ccc(C(=O)Oc2ccc(C(=N)N)cc2C(=O)c2ccccc2)cc1 [Compound 78] | 97.4 | 58.8 | 7.0 | – | < 5.00 | 0
COc1cc(C(=N)N)ccc1OC(=O)CCCc1ccc(N)cc1 [Compound 65, 4-amidino-2-methoxyphenyl 4-(4-aminophenyl)butyrate] | 81.7 | 9.8 | 0 | – | – | 0
COc1cc(C(=N)N)ccc1OC(=O)CC(C)C [Compound 3, 4-amidino-2-methoxyphenyl isovalerate] | 44.4 | 5.0 | 18.0 | – | – | 0
Cc1cccc(Nc2ccccc2C(=O)Oc2ccc(C(=N)N)cc2C(=O)c2ccccc2)c1C [Compound 87] | 0 | 0 | 0 | 5.30 | < 5.00 | 0
Cc1cccc(C(=O)Oc2ccc(C(=N)N)cc2[N+](=O)[O-])c1 [Compound 36] | 100 | 100 | 100 | – | – | 90.4
COc1cc(C(=N)N)ccc1OC(=O)C1CCCCC1 [Compound 9] | – | 16.2 | 2.5 | – | – | 0
CCCCCCC(=O)Oc1ccc(C(=N)N)cc1C(=O)c1ccccc1 [Compound 4] | 95.0 | 67.2 | 8.7 | – | – | 0
COc1cccc(CC(=O)Oc2ccc(C(=N)N)cc2OC)c1 [Compound 43] | 95.0 | 50.4 | 3.7 | – | – | 0
N=C(N)c1ccc(OC(=O)c2ccc(CN)cc2)c(C(=O)c2ccccc2)c1 [Compound 64] | 100 | 100 | 97.1 | – | – | 75.7
CC(=O)Oc1ccc(CCC(=O)Oc2ccc(C(=N)N)cc2C(=O)c2ccccc2)cc1 [Compound 55, 4-amidino-2-benzoylphenyl 3-(4-acetyloxy)phenylpropionate] | 100 | 96.9 | 60.8 | – | – | 3.5
CC(=O)c1ccc(C(=O)Oc2ccc(C(=N)N)cc2C(=O)c2ccccc2)cc1 [Compound 53] | 87.5 | 25.2 | – | – | – | 3.5
CNC(=S)Nc1ccc(C(=O)Oc2ccc(C(=N)N)cc2C(=O)c2ccccc2)cc1 [Compound 79] | 95.1 | 96.8 | 81.7 | – | < 5.00 | 48.1
N=C(N)c1ccc(OC(=O)c2ccc(S(N)(=O)=O)cc2)c([N+](=O)[O-])c1 [Compound 68] | 100 | 92.9 | 50.6 | – | – | 5.8
CC(C)Cc1ccc(C(C)C(=O)Oc2ccc(C(=N)N)cc2C(=O)c2ccccc2)cc1 (centres unmarked) [Compound 40] | 87.5 | 68.1 | 7.8 | – | – | 2.0
N=C(N)c1ccc(OC(=O)c2ccc(CNC(=O)OCc3ccccc3)cc2)c(C(=O)c2ccccc2)c1 [Compound 63] | 100 | 100 | 98.0 | – | – | 94.5
COc1ccccc1C(=O)Oc1ccc(C(=N)N)cc1C(=O)c1ccccc1 [Compound 41] | 66.7 | 9.3 | 0 | – | – | 0
N=C(N)NCCCCCC(=O)Oc1ccc(C(=N)N)cc1C(=O)c1ccccc1 [Compound 15] | 98.8 | 81.7 | 12.7 | – | – | 0
